{
  "source": "patent US20090304661A1",
  "about": "“Method And Composition For Proctecting Neuronal Tissue From Damage Induced By Elevated Glutamate Levels” (Yeda Research And Development Co. Ltd. at the Weizmann …, priority 2006, published 2009)",
  "key": {"[1]": {"target": "E. coli GOT (GenBank Accession No. D90731.1) (Escherichia coli, UniProt P00509)", "sequence (P00509 whole entry)": "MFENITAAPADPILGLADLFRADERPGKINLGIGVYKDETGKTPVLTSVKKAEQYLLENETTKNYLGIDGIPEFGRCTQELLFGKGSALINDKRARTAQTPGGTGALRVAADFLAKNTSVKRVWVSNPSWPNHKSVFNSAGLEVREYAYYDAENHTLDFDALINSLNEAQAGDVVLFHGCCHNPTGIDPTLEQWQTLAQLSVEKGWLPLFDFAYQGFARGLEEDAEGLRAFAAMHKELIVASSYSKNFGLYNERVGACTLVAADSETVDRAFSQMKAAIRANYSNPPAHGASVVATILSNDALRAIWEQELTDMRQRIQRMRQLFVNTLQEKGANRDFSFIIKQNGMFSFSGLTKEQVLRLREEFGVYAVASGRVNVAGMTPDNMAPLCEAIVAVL", "conditions": "cited from earlier work"}, "[2]": {"system": "Glu in rat brain striatum", "experiment": "Dual-probe microdialysis of Glu in rat brain striatum", "type": "in vivo", "procedure": "Glu (1M) was continuously perfused at a rate of 2 μl/min from the delivery probe while perfusing artificial CSF at the same rate of 2 μl/min through the recovery probe for the entire duration of the experiments. […] Microdialysis of 1M Glu along with an intravenous Glu injection performed at t=100 min for 30 min (30 μmoles/min/100 g).\nArtificial CSF was perfused at a rate of 2 μl/min through the two probes for a duration of 60 min. A 1 M solution of glutamate was then perfused through the delivery probe, at a rate of 2 μl/min for the entire duration of the experiment while perfusing artificial CSF at the same rate of 2 μl/min through a recovery probe, located at 1 mm from the delivery probe. Aliqouots of 40 μl were collected from the recovery probe every 20 min. The recovered Glu was measured using a spectrofluorometric assay (see below).\nA 20 μl aliquot from microdialysate was added to 480 μl HG buffer containing 15 U of Glu dehydrogenase in 0.2 mM NAD, 0.3M glycine, 0.25 M hydrazine hydrate adjusted to pH 8.6 with 1N H2SO4. […] A Glu standard curve was established with concentrations ranging from 0-6 μM. All determinations were done at least in duplicates. The results are expressed as mean.+−SD.\nThe dual-probe brain microdialysis was used and perfused through the delivery probe inserted in the striatum of anesthetized rats a Glu solution while simultaneously perfusing artificial CSF through a recovery probe, located at 1 mm distance."}, "[3]": {"system": "traumatic brain injury (TBI)", "experiment": "Neurological severity score (NSS) after traumatic brain injury", "type": "in vivo, rat", "conditions": "for spontaneous partial recovery of rats submitted to TBI: summary statement", "procedure": "FIGS. 3A-C are graphs showing the effects of stress on the spontaneous recovery from traumatic brain injury. FIG. 3A illustrates TBI protocol and times of neurological severity score (NSS) assessment and removal of blood samples (asterisks) FIG. 4B is a histogram showing the effects of propranolol (10 mg/kg i.p) on the spontaneous recovery of rats submitted to TBI. Propranolol was injected 60 min before the infliction of TBI. The neurological severity scores were measured at 1 and 24 hours following TBI. The scores shown on the ordinate correspond to NSS averages+/−standard error of the mean. Control (n=33); propranolol (n=8). […] Propranolol was injected at a dose of 10 mg/kg i.p. 60 min before the infliction of TBI.\nAnimal anesthesia and well being—Experiments were conducted according to the recommendations of the Declarations of Helsinki and Tokyo and to the Guidelines for the Use of Experimental Animals of the European Community. The experiments were approved by the Animal Care Committees of Ben-Gurion University of the Negev and of the Weizmann Institute. Spontaneously breathing male Sprague Dawley rats weighing 200-300 g were anesthetized with a mixture of isoflurane (initial inspired concentration 2%) in 100% oxygen (1l/min). The rectal temperature was maintained at 37° C. using a heating pad and anesthesia was considered as sufficient for surgery when tail reflex was abolished. Catherization of the tail vein was carried out with a BD Neoflon 24 g catheter for allowing fluid infusion. Catherization of the tail artery was performed to allow blood sampling and determination of blood pressure and heart rate."}, "blood Glu levels [4]": {"system": "blood Glu levels", "experiment": "Blood Glu levels following traumatic brain injury", "type": "in vivo, rat", "description": "FIGS. 3A-C are graphs showing the effects of stress on the spontaneous recovery from traumatic brain injury. FIG. 3A illustrates TBI protocol and times of neurological severity score (NSS) assessment and removal of blood samples (asterisks) […] is a histogram showing the effects of propranolol (10 mg/kg i.p) on the spontaneous recovery of rats submitted to TBI. Propranolol was injected 60 min before the infliction of TBI. The neurological severity scores were measured at 1 and 24 hours following TBI. The scores shown on the ordinate correspond to NSS averages+/−standard error of the mean. Control (n=33); propranolol (n=8). Bonferroni's multiple comparison tests: saline 1 h vs saline 24 h p<0.001; saline 1 h vs propranolol pretreatment p>0.05; saline 1 h vs propranolol post-TBI p<0.001. FIG. 3C is a graph showing the effects of propranolol on the blood Glu (rectangles) and glucose (triangles) levels of rats submitted to TBI (n=8). Propranolol was injected at a dose of 10 mg/kg i.p. 60 min before the infliction of TBI. Glu and glucose levels were measured at 1, 60, 120 and 150 min following TBI. Glu levels were normalized to the value at t=1 min.;\nFIGS. 4A-C are graphs depicting the effects of a blood Glu scavenger and of Glu on the recovery from TBI. Rats were injected intravenously for a total duration of 30 min (as in FIG. 3A) either with saline (30 μl/min/100 g), OxAc (30 μmoles/min/100 g) or OxAc+Glu (30 μmoles/min/100 g each). Twenty four and forty eight hours later, rats were submitted to various tests to establish the NSS. The scores shown above each column correspond to NSS averages with bars indicating the standard error of the mean. FIG. 4A—The groups from left to right are as follows: control saline (n=33) at 1 hour and 24 h; OxAc (n=32); Glu (n=32); OxAc+Glu (n=17) at 24 h and 48 h; One way ANOVA and Bonferroni multiple comparison tests: At 24 h: saline versus OxAc: p<0.05; saline versus Glu: p<0.01; Glu versus OxAc: p<0.001; saline versus OxAc+Glu: p>0.05. […] Glu levels are expressed as the percent of the basal Glu levels measured before TBI. […] Paired t test: 0 versus 60 min saline p=5.10^−4; 0 versus 60 min OxAc p=0.10^−4; 60 min versus 75 min saline: p=0.59; 60 min versus 75 min OxAc: p=3.10^−3; 75 min versus 90 min saline: p=0.89; 75 min versus 90 min OxAc: p=2.10^−4; C: Time course of the recovery from TBI in saline (n=7) and OxAc-treated (n=7) rats as monitored by NSS values presented here as mean±standard deviation. […]\nGlu spectrofluorometric assay—Glu concentration was measured using the fluorometric method of Graham and Aprison. […] After incubation for 30-45 min at room temperature, the fluorescence was measured at 460 nm with excitation at 350 nm. […] The results are expressed as mean.+−SD. […]"}, "[5]": {"experiment": "Blood osmolality and Na content before and after treatment", "type": "in vivo, rat", "conditions": "OxAc group", "description": "This beneficial effect was not observed in the other groups for which the treatment includes the intravenous administration of Glu (data not shown). Since OxAc could act on brain edema as an osmotic agent, both the blood osmolality and Na content were measured before and after the 30 min-long treatments with OxAc or saline. There was no change in the saline group (303±3.5 mOsm (pre-treatment) vs 299±3 mOsm (post-treatment); Na: 140±1 meq/l vs 141±0.8 meq/l) but a very significant increase in the OxAc-group: (301±5 mOsm vs 338±8 mOsm; Na: 139±1 meq/l vs 164±3.4 meq/l). The hypernatriema and hyperosmolarity in the OxAc-treated rats can be accounted by the fact that OxAc is administered together with 2 Na equivalents. To determine that the NSS improvement and edema reduction in the OxAc-treated rats were not due to an osmotic “therapy”, rats were submitted after TBI to a hypertonic (3% NaCl) saline treatment. As the respective NSS values obtained at 60 min and 24 h post TBI were 15.6±3.6 and 12.4±5.3 (n=7; p=0.16), it was concluded that the beneficial effects of OxAc are not the result of an osmotic therapy."}, "blood Glu levels [6]": {"system": "blood Glu levels", "experiment": "Blood Glu levels in rats after stress hormones, agonists and antagonists", "type": "in vivo, rat", "conditions": "for effect on blood Glu levels: cortisol 25 mg/kg intraperitoneally, noradrenaline intravenously 30 min at 2 μg/100 g/min", "description": "FIGS. 2A-B are line graphs showing the effects of stress hormones and stress on blood glutamate and glucose levels. A: Cortisol (25 mg/kg) was injected intraperitoneally (triangles). Noradrenaline was infused intravenously for 30 min at 2 μg/100 g/min and 1 ml/100 g (rectangles). Adrenaline was infused intravenously for 30 min at […] and 1 ml/100 g (diamonds). The data presented are normalized to the respective basal blood values and shown as mean±standard deviation (n=3). B: Effects of an intracranial insertion of a microdialysis probe (without any fluid perfusion) on blood Glu (diamonds) and glucose (rectangles) levels. The data presented are normalized to the respective basal blood values and shown as mean±standard deviation (n=4);\nThe rats NSS were measured after 24 and 48 h The results are presented as mean±standard deviation; and\nFIG. 8 is a graph showing the effect of an alpha 1 agonist, phenylephrine on blood Glu levels. Phenylephrine was infused intravenously for 30 min into rats (n=4) at a rate 0.25 mg/0.5 ml/100 g/30 min and the levels of blood Glu were determined at time=0 and every subsequent 30 min until 120 min. The results are presented as mean±standard deviation.\nGlu spectrofluorometric assay—Glu concentration was measured using the fluorometric method of Graham and Aprison. A 20 μl aliquot from microdialysate was added to 480 μl HG buffer containing 15 U of Glu dehydrogenase in 0.2 mM NAD, 0.3M glycine, 0.25 M hydrazine hydrate adjusted to pH 8.6 with 1N H2SO4. After incubation for 30-45 min at room temperature, the fluorescence was measured at 460 nm with excitation at 350 nm. A Glu standard curve was established with concentrations ranging from 0-6 μM. All determinations were done at least in duplicates. The results are expressed as mean.+−SD.\nDetermination of Blood/plasma Glu—Whole blood (200 μl aliquot) were deproteinized by adding an equal volume of ice-cold 1 M perchloric acid (PCA) and then centrifuging at 10000×g for 10 min at 4° C. The pellet was discarded and supernatant collected, adjusted to pH 7.2 with 2M K2CO3 and, if needed, stored at −80° C. for later analysis using the above-described assay.\nThe rats NSS were measured after 24 and 48 h.\nPhenylephrine was infused intravenously for 30 min into rats (n=4) at a rate 0.25 mg/0.5 ml/100 g/30 min and the levels of blood Glu were determined at time=0 and every subsequent 30 min until 120 min."}, "blood glucose levels": {"system": "blood glucose levels", "experiment": "Blood glucose levels following traumatic brain injury", "type": "in vivo, rat", "conditions": "propranolol 10 mg/kg i.p. 60 min before TBI", "description": "FIGS. 3A-C are graphs showing the effects of stress on the spontaneous recovery from traumatic brain injury. FIG. 3A illustrates TBI protocol and times of neurological severity score (NSS) assessment and removal of blood samples (asterisks) […] is a histogram showing the effects of propranolol (10 mg/kg i.p) on the spontaneous recovery of rats submitted to TBI. Propranolol was injected 60 min before the infliction of TBI. The neurological severity scores were measured at 1 and 24 hours following TBI. The scores shown on the ordinate correspond to NSS averages+/−standard error of the mean. Control (n=33); propranolol (n=8). […] Glu and glucose levels were measured at 1, 60, 120 and 150 min following TBI. […]\nAnimal anesthesia and well being—Experiments were conducted according to the recommendations of the Declarations of Helsinki and Tokyo and to the Guidelines for the Use of Experimental Animals of the European Community. […] Blood samples were analyzed for pH, pO2, pCO2, HCO3^−3. Glucose levels were measured with Accu-Chek sensor comfort. […] Following TBI, all rats were laid on their left side in order to recover from anesthesia and to check righting reflex and recovery time as part of the assessment of NSS which was evaluated 1 h after TBI (see below)."}, "[7]": {"conditions": "baseline before 30 min-long treatment"}},
  "data": [
    {"smiles": "O=C(O)CCC(=O)C(=O)O", "note": "[2-ketoglutarate]", "values": [
      {"measurement": "affinity of E. coli GOT for the substance", "setting": "[1]", "result": "about 0.2 mM"}
    ]},
    {"smiles": "N[C@@H](CCC(=O)O)C(=O)O", "note": "[Glu, L-glutamic acid]", "values": [
      {"measurement": "amounts of Glu reaching the recovery probe", "setting": "[2]; 1M Glu perfused, intravenous Glu at t=100 min for 30 min, 30 μmoles/min/100 g", "result": "significantly more Glu reaches the recovery probe"},
      {"measurement": "recovery from TBI (NSS at 24 h and 48 h)", "setting": "[3]; intravenous 30 min, 30 μmoles/min/100 g (each), after TBI", "result": "recovered the least"},
      {"measurement": "spontaneous partial recovery of rats submitted to TBI", "setting": "[3]", "result": "prevented"},
      {"measurement": "affinity of E. coli GOT for the substance", "setting": "[1]", "result": "about 8 mM"}
    ]},
    {"smiles": "O=C(O)CC(=O)C(=O)O", "note": "[OxAc, oxaloacetate]", "values": [
      {"measurement": "further reduction of the amounts of Glu reaching the recovery probe", "setting": "[2]; 1M Glu perfused, intravenous OxAc at t=110 min for 30 min, 30 μmoles/min/100 g", "result": "up to 50 % of the peak value"},
      {"measurement": "blood Glu levels after TBI", "setting": "blood Glu levels [4]; intravenous OxAc 30 μmoles/min/100 g, 60-90 min after TBI, relative to basal Glu before TBI", "result": 40, "unit": "%"},
      {"measurement": "duration of decrease of blood Glu after TBI", "setting": "blood Glu levels [4]; stress- and OxAc-induced decreases", "result": "at least 90 min"},
      {"measurement": "blood Na content, post-treatment", "setting": "[5]; after 30 min-long treatment", "result": "164±3.4", "unit": "meq/l"},
      {"measurement": "blood osmolality, post-treatment", "setting": "[5]; after 30 min-long treatment", "result": "338±8", "unit": "mOsm"},
      {"measurement": "blood Na content, pre-treatment", "setting": "[5]; [7]", "result": "139±1", "unit": "meq/l"},
      {"measurement": "blood osmolality, pre-treatment", "setting": "[5]; [7]", "result": "301±5", "unit": "mOsm"}
    ]},
    {"smiles": "C[C@]12CCC(=O)C=C1CC[C@@H]1[C@@H]2[C@@H](O)C[C@@]2(C)[C@H]1CC[C@]2(O)C(=O)CO", "note": "[cortisol]", "values": [
      {"measurement": "effect on blood Glu levels", "setting": "blood Glu levels [6]", "result": "neither cortisol nor noradrenaline affected blood Glu levels"}
    ]},
    {"smiles": "COCCc1ccc(OCC(O)CNC(C)C)cc1", "note": "(stereo not drawn) [metaprolol]", "values": [
      {"measurement": "effect on the reduction of blood Glu levels", "setting": "blood Glu levels [6]; metaprolol 15 mg/kg, naive rats", "result": "strong effect"},
      {"measurement": "reduction of in vivo rat blood glutamate", "setting": "blood Glu levels [6]; metaprolol 15 mg/kg, naive rats, followed to 120 min", "result": 40, "unit": "%"}
    ]},
    {"smiles": "NC[C@H](O)c1ccc(O)c(O)c1", "note": "[noradrenaline]", "values": [
      {"measurement": "effect on blood Glu levels", "setting": "blood Glu levels [6]", "result": "neither cortisol nor noradrenaline affected blood Glu levels"}
    ]},
    {"smiles": "CNC[C@H](O)c1cccc(O)c1", "note": "[phenylephrine]", "values": [
      {"measurement": "reduction of blood basal glutamate levels", "setting": "blood Glu levels [6]; injected intravenously at 0.1 mg/100 gr rat body-weight/30 min", "result": 40, "unit": "%"}
    ]},
    {"smiles": "CC(C)NCC(O)COc1cccc2ccccc12", "note": "(stereo not drawn) [propranolol]", "values": [
      {"measurement": "effect on Glu dual-probe microdialysis profile", "setting": "[2]; propranolol pretreatment, data not shown", "result": "did not affect"},
      {"measurement": "spontaneous NSS improvement at 24 h", "setting": "[3]; propranolol 10 mg/kg i.p. 1 hour before TBI", "result": "prevented the spontaneous NSS improvement"},
      {"measurement": "NSS improvement", "setting": "[3]; propranolol administration delayed by 60 min after TBI", "result": "caused the same NSS improvement as that found after saline treatment"},
      {"measurement": "spontaneous partial recovery of rats submitted to TBI", "setting": "[3]", "result": "prevented"},
      {"measurement": "stress-induced changes of blood Glu levels", "setting": "blood Glu levels [4]; propranolol 10 mg/kg i.p. 60 min before TBI", "result": "prevented for at least 150 min the stress-induced changes of blood Glu and glucose levels"},
      {"measurement": "effect on blood glutamate levels", "setting": "blood Glu levels [4]; propranolol, rats submitted to TBI (FIGS. 3A-C)", "result": "practically no effect"},
      {"measurement": "stress-induced changes of blood glucose levels", "setting": "blood glucose levels", "result": "prevented for at least 150 min the stress-induced changes of blood Glu and glucose levels"}
    ]}
  ]
}
